Tested on: BJ skin fibroblasts and primary melanocytes
Assay: Cell toxicity studies (CellTiter-Glo, 72 h)
Type: cell-based
Settings: skin fibroblast and melanocyte viability
Procedure: We also tested representative compounds from each scaffold for effects on skin fibroblast and melanocyte viability to ascertain cytotoxicity towards various skin cell types.
Test compounds were solubilized in 100% DMSO and added to polypropylene 384 well plates (Greiner cat# 781280). The 1250 of BJ skin fibroblasts (ATCC CRL-2522) and primary melanocytes (ATCC PCS-200-013) were plated in 384 well plates in 8 µL of serum-free media […]. Test compounds and pharmacological assay control (lapatinib) were prepared as 10-point, 1:3 serial dilutions starting at 10 mM, then added to the cells using the pin tool mounted on the Integra 384. Plates were incubated for 72 h at 37 °C, 5% CO2 and 95% relative humidity. […] Luminescence was recorded using a Biotek Synergy H1 multimode microplate reader. Viability was expressed as a percentage relative to wells containing media only (0%) and wells containing cells treated with DMSO only (100%). Three parameters were calculated on a per plate basis: (a) the signal-to-background ratio (S/B); (b) the coefficient for variation (CV; CV = (standard deviation/mean) × 100)) for all compound test wells; and (c) the Z’-factor. IC50 values were calculated by fitting normalized data to sigmoidal log versus response equation utilizing nonlinear regression analysis from GraphPad Prizm 8.

O=C(CCN(Cc1ccccc1)S(=O)(=O)c1ccc(F)cc1)NO [Compound 162808]
cytotoxicity (effect on cell viability): no cytotoxicity
